# Key:
# hNav1.5 = hNav1.5 (Homo sapiens (Human), UniProt Q14524); experiment: Patch voltage clamp electrophysiology (PatchXpress), HEK-293 cells, inactivated state block; settings: read-out: EP_PX 293 hNav1.5 (IC50), β1 coexpressed, holding −60 mV;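 also: control was the sodium current recorded in 0.5% DMSO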
# hNav1.7 [1] = target: T1, hNav1.7 (Homo sapiens (Human), UniProt Q15858); experiment: Tritiated aryl sulfonamide binding to membranes from cells expressing hNav1.7 and the β1 subunit (competitive binding); settings: read-out: NaV1.7 395 Memb Binding (IC50)
# T1 sequence (Q15858 whole entry, looked up): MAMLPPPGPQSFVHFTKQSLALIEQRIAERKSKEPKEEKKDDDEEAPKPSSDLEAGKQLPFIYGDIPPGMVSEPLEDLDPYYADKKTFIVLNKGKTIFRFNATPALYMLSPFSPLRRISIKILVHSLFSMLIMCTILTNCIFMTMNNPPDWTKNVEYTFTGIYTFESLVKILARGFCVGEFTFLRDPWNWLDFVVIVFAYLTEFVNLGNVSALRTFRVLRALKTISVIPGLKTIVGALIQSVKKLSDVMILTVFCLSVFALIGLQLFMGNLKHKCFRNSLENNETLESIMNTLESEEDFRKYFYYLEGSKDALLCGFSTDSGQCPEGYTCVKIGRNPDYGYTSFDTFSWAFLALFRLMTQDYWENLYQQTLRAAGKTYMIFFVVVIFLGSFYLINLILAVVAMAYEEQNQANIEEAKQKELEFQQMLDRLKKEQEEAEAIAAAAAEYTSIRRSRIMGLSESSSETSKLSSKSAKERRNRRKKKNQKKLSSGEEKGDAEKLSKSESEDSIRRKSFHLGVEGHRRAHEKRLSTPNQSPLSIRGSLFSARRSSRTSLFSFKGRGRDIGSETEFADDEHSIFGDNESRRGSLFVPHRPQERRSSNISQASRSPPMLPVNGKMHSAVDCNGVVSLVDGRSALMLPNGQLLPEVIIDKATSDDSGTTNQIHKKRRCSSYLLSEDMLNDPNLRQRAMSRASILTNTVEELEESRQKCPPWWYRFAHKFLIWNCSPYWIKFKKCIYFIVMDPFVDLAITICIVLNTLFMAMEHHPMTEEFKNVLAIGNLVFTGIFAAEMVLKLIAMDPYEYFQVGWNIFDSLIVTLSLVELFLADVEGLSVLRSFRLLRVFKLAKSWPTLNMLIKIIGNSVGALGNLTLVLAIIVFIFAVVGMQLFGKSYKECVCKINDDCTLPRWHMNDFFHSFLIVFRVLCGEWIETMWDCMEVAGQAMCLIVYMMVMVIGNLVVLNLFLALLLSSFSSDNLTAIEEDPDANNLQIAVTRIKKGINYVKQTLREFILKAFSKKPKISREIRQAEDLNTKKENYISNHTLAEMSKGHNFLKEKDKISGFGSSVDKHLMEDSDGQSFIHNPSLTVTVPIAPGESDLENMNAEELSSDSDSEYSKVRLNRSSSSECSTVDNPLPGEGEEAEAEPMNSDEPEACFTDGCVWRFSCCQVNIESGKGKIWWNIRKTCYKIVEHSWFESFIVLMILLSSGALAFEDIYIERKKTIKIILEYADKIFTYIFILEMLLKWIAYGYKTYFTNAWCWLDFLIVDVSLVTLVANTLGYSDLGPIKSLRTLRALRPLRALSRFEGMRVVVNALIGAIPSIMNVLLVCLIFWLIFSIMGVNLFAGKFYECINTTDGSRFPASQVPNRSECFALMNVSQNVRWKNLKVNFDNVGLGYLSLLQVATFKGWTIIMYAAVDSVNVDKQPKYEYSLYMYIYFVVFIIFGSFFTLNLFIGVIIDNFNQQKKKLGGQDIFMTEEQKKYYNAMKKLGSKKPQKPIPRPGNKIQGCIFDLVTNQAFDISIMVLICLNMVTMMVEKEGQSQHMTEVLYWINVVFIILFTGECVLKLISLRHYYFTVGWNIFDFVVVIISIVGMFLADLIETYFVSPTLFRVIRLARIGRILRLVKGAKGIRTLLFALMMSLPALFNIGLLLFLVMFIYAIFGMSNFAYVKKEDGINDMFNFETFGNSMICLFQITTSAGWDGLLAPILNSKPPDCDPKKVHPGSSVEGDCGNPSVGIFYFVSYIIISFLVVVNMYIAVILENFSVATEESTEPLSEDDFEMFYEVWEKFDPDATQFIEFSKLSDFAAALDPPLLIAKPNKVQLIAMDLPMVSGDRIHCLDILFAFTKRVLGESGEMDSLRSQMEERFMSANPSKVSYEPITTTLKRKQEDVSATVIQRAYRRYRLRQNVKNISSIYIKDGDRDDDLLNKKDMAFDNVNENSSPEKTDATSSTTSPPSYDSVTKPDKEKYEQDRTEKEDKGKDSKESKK
# T1 sequence (Q07699 whole entry partner, looked up): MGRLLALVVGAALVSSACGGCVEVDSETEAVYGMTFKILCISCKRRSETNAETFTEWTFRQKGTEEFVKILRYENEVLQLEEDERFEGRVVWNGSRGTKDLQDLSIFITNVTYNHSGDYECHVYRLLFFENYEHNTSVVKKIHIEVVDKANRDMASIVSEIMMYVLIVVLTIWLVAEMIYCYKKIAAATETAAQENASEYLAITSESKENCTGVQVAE
# Method in brief: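 Competitive displacement of 100 μM [3H]-labelled tritiated aryl sulfonamide from hNav1.7/β1 membranes, 18 h at room temperature in 100 mM NaCl, 20 mM Tris HCl pH 7.4. Non-specific binding defined with 1 μM unlabelled compound. Filter-bound radioactivity measured by liquid scintillation counting.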
# hNav1.7 [2] = target: T1, hNav1.7; experiment: Patch voltage clamp electrophysiology (PatchXpress), HEK-293 cells, inactivated state block; type: cell-based; settings: read-out: EP_PX 293 hNav1.7 (IC50)
# [3] = membranes with hNav1.7 and β1 subunit, [3H]compound displacement, 18 h, room temperature
# [4] = HEK-293 cells, β1 coexpressed, inactivated state, holding −60 mV
# Sequence of hNav1.5 (Q14524 whole entry): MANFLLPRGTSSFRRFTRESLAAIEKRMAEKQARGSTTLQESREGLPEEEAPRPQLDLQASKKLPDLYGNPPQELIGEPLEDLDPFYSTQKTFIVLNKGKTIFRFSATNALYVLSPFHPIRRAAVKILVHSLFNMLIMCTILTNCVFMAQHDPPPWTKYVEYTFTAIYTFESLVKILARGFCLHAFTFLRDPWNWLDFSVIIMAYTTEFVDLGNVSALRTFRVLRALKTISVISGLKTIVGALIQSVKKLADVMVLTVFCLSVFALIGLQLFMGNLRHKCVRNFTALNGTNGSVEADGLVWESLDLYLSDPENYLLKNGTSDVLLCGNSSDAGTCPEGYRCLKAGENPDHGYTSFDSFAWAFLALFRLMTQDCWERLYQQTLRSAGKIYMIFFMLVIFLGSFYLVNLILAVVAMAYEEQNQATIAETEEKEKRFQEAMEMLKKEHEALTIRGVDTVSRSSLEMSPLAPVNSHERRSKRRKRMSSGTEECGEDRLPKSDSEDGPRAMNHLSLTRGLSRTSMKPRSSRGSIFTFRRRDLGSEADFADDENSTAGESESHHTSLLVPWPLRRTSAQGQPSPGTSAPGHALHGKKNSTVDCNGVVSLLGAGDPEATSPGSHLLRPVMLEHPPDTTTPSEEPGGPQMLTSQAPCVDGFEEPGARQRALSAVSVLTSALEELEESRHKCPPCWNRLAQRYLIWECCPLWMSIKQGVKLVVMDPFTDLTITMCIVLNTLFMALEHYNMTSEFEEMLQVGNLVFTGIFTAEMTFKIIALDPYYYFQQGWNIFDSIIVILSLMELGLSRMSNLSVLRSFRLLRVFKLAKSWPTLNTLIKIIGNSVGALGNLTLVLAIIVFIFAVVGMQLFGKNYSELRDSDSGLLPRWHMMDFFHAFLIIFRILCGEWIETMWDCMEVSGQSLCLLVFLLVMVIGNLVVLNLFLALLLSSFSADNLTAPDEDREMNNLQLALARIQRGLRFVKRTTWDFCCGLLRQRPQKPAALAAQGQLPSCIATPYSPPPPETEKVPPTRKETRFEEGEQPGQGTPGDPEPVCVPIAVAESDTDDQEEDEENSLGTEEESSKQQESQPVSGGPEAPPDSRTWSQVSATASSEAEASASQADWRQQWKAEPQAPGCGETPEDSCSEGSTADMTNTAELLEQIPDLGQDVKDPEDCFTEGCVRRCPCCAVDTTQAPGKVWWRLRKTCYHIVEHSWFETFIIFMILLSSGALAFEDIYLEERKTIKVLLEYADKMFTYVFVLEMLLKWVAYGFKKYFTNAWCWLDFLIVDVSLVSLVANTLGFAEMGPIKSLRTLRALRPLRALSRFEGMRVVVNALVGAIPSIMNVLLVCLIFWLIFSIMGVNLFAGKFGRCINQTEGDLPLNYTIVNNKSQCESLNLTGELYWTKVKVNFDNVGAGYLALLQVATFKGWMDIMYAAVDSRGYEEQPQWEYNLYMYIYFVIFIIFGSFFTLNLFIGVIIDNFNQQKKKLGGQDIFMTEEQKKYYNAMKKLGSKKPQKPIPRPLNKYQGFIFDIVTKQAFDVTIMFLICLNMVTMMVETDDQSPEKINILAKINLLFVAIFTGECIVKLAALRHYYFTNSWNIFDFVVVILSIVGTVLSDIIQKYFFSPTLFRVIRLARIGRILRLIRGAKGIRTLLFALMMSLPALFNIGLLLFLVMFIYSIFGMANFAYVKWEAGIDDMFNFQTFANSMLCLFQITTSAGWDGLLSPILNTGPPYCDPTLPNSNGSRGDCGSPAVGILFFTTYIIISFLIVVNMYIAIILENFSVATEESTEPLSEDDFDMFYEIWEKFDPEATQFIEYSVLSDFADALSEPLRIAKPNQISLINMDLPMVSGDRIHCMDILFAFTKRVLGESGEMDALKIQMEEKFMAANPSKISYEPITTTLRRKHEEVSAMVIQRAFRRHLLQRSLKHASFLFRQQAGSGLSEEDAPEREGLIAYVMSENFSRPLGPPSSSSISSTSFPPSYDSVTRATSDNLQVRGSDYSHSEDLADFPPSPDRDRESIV
Compound,IC50 (hNav1.5) [nM],IC50 (hNav1.7 [1]; [3]) [nM],IC50 (hNav1.7 [2]; [4]) [nM],IC50 (hNav1.7 [2]) [nM],IC50 (hNav1.7 [1]) [nM]
CN(C)S(=O)(=O)NC(=O)c1cc(Cl)c(OC2CC3CC2C2CCCC32)cc1F (stereo not shown),7820,535,,,
CS(=O)(=O)NC(=O)c1cc(Cl)c(OCC2CC3C4CCC(C4)C3C2)cc1F (stereo not shown),743,9,3.6,,
O=C(NS(=O)(=O)C1CC1)c1cc(Cl)c(OCC23CC4CC(CC(C4)C2)C3)cc1F,427,,,,
O=C(NS(=O)(=O)N1CC[C@H](O)C1)c1cc(C2CC2)c(OCC23CC4CC(CC(C4)C2)C3)cc1F,110,10,,,
O=C(NS(=O)(=O)N1CC(F)C1)c1cc(C2CC2)c(OCC23CC4CC(CC(C4)C2)C3)cc1F,422,1,,,
O=C(NS(=O)(=O)N1CC(F)(F)C1)c1cc(C2CC2)c(OCC23CC4CC(CC(C4)C2)C3)cc1F,326,10,,,
CS(=O)(=O)NC(=O)c1cc(C2CC2)c(OCC2CCC(F)(F)CC2)cc1F,5230,,,,
O=C(NS(=O)(=O)NCCCO)c1cc(C2CC2)c(OCC23CC4CC(CC(C4)C2)C3)cc1F,22,23,9.2,,
COC1CN(S(=O)(=O)NC(=O)c2cc(C3CC3)c(OCC34CC5CC(CC(C5)C3)C4)cc2F)C1,144,3,24.9,,
O=C(NS(=O)(=O)N1CCC1)c1cc(C2CC2)c(OCC2CCCCC2)cc1F,40,,,1,6
COCCS(=O)(=O)NC(=O)c1cc(C2CC2)c(OCC2CCCCC2)cc1F,140,,,,
O=C(NS(=O)(=O)N1CCC1)c1cc(C2CC2)c(OCC2C3CC4CC(C3)CC2C4)cc1F (stereo not shown),130,1,9,,
CS(=O)(=O)NC(=O)c1cc(C2CC2)c(OCC23CC4(F)CC(F)(CC(F)(C4)C2)C3)cc1F,3500,14,20,,
O=C(NS(=O)(=O)C1CC1)c1cc(C2CC2)c(OCC2CCC(F)(F)CC2)cc1F,630,6,8,,
O=C(NS(=O)(=O)C1CC1)c1cc(C2CC2)c(OCC23CC4(F)CC(F)(CC(F)(C4)C2)C3)cc1F,430,5,20,,
O=C(NS(=O)(=O)N1CCC1)c1cc(C2CC2)c(OCC2(C(F)(F)F)CCCC2)cc1F,90,4,2,,
O=C(NS(=O)(=O)C1CC1)c1cc(C2CC2)c(OCC23CC4CC(C2)C(F)(F)C(C4)C3)cc1F,130,3,8,,
O=C(NS(=O)(=O)N1CCC1)c1cc(C2CC2)c(OCC23CCCCC2C3)cc1F (stereo not shown),160,6,2,,
O=C(NS(=O)(=O)N1CCC1)c1cnc(OCC23CC4CC(CC(C4)C2)C3)c(C2CC2)c1,7500,290,63,,
COCCS(=O)(=O)NC(=O)c1cnc(OCC23CC4CC(CC(C4)C2)C3)c(C2CC2)c1,15300,720,370,,
O=C(NS(=O)(=O)N1CCC1)c1cc(C2CC2)c(O[C@H]2C3CC4CC2C[C@](Cl)(C4)C3)cc1F,21600,9,30,,
CS(=O)(=O)NC(=O)c1cnc(OCC23CC4CC(CC(C4)C2)C3)c(C2CC2)c1,2580,72,17.9,,
O=C(NS(=O)(=O)N1CC(O)C1)c1cc(C2CC2)c(OCC23CC4CC(CC(C4)C2)C3)cc1F,60.6,7,10.7,,
CS(=O)(=O)NC(=O)c1ccc(OCC23CC4CC(CC(C4)C2)C3)c(Br)c1,1950,51,7.6,,
CC1(C)[C@H]2CC[C@H](COc3cc(F)c(C(=O)NS(C)(=O)=O)cc3Cl)[C@@H]1C2,1070,12,,,
CS(=O)(=O)NC(=O)c1ccc(OCC23CC4CC(CC(C4)C2)C3)c(C2CC2)c1,700,3,1.31,,

Compound,IC50 (hNav1.5) [nM],IC50 (hNav1.7 [1]; [3]) [nM],IC50 (hNav1.7 [2]; [4]) [nM],IC50 (hNav1.7 [2]) [nM],IC50 (hNav1.7 [1]) [nM]
CN(C)S(=O)(=O)NC(=O)c1cc(Cl)c(OCC23CC4CC(C2)C(F)(F)C(C4)C3)cc1F [Example 92],3760,221,53.1,,
CC1(F)CCC(COc2cc(F)c(C(=O)NS(=O)(=O)N3CCC3)cc2Cl)CC1 (stereo not shown) [Example 331],,450,710,,
O=C(NS(=O)(=O)C1CC1)c1cc(C2CC2)c(OC2C3CC4CC(C3)CC2C4)cc1F (stereo not shown) [Example 332],,4,27,,
O=C(NS(=O)(=O)C1CC1)c1cc(Cl)c(OC2CCC(F)(F)CC2)cc1F [Example 339],,310,3300,,
O=C(NS(=O)(=O)N1CCC1)c1cc(C2CC2)c(OCC2CC23CCCCC3)cc1F (stereo not shown) [Example 347],,14,67,,
"COC(=O)C12CC3C[C@H](C1)C(Oc1cc(F)c(C(=O)NS(C)(=O)=O)cc1Cl)[C@@H](C3)C2 (stereo partly drawn) [Example 353, (1s,3R,4r,5S,7s)-methyl 4-(2-chloro-5-fluoro-4-((methyl-sulfonyl)carbamoyl)-phenoxy)adamantane-1-carboxylate]",,130,240,,
CC1(C)CCCC(Oc2cc(F)c(C(=O)NS(=O)(=O)N3CCC3)cc2C2CC2)C1 (stereo not shown) [Example 357],,16,120,,
"CC1(C)CCCC(Oc2cc(F)c(C(=O)NS(C)(=O)=O)cc2C2CC2)C1 (stereo not shown) [Example 358, 5-cyclopropyl-4-((3,3-dimethylcyclohexyl)oxy)-2-fluoro-N-(methylsulfonyl)benzamide]",,12,62,,
CC1CCCCC1COc1cc(F)c(C(=O)NS(=O)(=O)N2CCC2)cc1C1CC1 (stereo not shown) [Example 372],,7,11,,
O=C(NS(=O)(=O)N1CCC1)c1cc(C2CC2)c(OCC2CC=C(Cl)CC2)cc1F (stereo not shown) [Example 376],,20,30,,
O=C(NS(=O)(=O)N1CCC1)c1cc(C2CC2)c(OCC2CCC(Cl)(Cl)CC2)cc1F [Example 377],,8,84,,
CS(=O)(=O)NC(=O)c1cc(C2CC2(F)F)c(OCC23CC4CC(CC(C4)C2)C3)cc1F (stereo not shown) [Example 380],,4,80,,
O=C(NS(=O)(=O)C1CC1)c1cc(C2CC2)c(OCC2CCC3CC3C2)cc1F (stereo not shown) [Example 392],,5,3,,
CC1CCCC(C)C1COc1cc(F)c(C(=O)NS(=O)(=O)C2CC2)cc1Cl (stereo not shown) [Example 397],,32,200,,
CCS(=O)(=O)NC(=O)c1cc(Cl)c(OCC2CCC3(CC2)CC3)cc1F [Example 400],,20,97,,
CS(=O)(=O)NC(=O)c1cc(C2CC2)c(OCC2CCCC(F)(F)C2)cc1F (stereo not shown) [Example 402],,22,300,,
CNS(=O)(=O)NC(=O)c1cc(C2CC2)c(OCC2CCCC(F)(F)C2)cc1F (stereo not shown) [Example 403],,90,910,,
O=C(NS(=O)(=O)N1CCC1)c1cc(C2CC2)c(OCC2CCCC(F)(F)C2)cc1F (stereo not shown) [Example 404],,23,57,,
"CC1(COc2cc(F)c(C(=O)NS(=O)(=O)C3CC3)cc2C2CC2)CCC(C(F)(F)F)CC1 (stereo not shown) [Example 426, 5-cyclopropyl-N-cyclopropylsulfonyl-2-fluoro-4-[[1-methyl-4-(trifluoromethyl)cyclohexyl]methoxy]benzamide]",,2,51,,
"CC1(COc2cc(F)c(C(=O)NS(=O)(=O)N3CCC3)cc2C2CC2)CCC(C(F)(F)F)CC1 (stereo not shown) [Example 427, N-(azetidin-1-ylsulfonyl)-5-cyclopropyl-2-fluoro-4-[[1-methyl-4-(trifluoromethyl)cyclohexyl]methoxy]benzamide]",,3,130,,
"O=C(NS(=O)(=O)C1CC1)c1cc(C2CC2)c(OCC2CCC(C(F)(F)F)CC2)cc1F (stereo not shown) [Example 428, 5-cyclopropyl-N-cyclopropylsulfonyl-2-fluoro-4-[[4-(trifluoromethyl)cyclohexyl]methoxy]benzamide]",,4,12,,
"O=C(NS(=O)(=O)N1CCC1)c1cc(C2CC2)c(OCC2CCC(C(F)(F)F)CC2)cc1F (stereo not shown) [Example 429, N-(azetidin-1-ylsulfonyl)-5-cyclopropyl-2-fluoro-4-[[4-(trifluoromethyl)cyclohexyl]methoxy]benzamide]",,8,100,,
"O=C(NS(=O)(=O)C1CC1)c1cc(C2CC2)c(OCC23CCCCC2C3(F)F)cc1F (stereo not shown) [Example 430, 5-cyclopropyl-N-cyclopropylsulfonyl-4-[(7,7-difluoronorcaran-1-yl)methoxy]-2-fluoro-benzamide]",,3,10,,
"O=C(NS(=O)(=O)N1CCC1)c1cc(C2CC2)c(OCC23CCCCC2C3(F)F)cc1F (stereo not shown) [Example 431, N-(azetidin-1-ylsulfonyl)-5-cyclopropyl-4-[(7,7-difluoronorcaran-1-yl)methoxy]-2-fluoro-benzamide]",,13,10,,
"O=C(NS(=O)(=O)N1CCC1)c1cc(C2CC2)c(OCC2CCC3CC3C2)cc1F (stereo not shown) [Example 432, N-(azetidin-1-ylsulfonyl)-5-cyclopropyl-2-fluoro-4-(norcaran-3-ylmethoxy)benzamide]",,22,32,,
"CS(=O)(=O)NC(=O)c1cc(C2CC2)c(OCC2CN(C(c3ccccc3)c3ccccc3)C2)cc1F [Example 440, 4-((1-benzhydrylazetidin-3-yl)methoxy)-5-cyclopropyl-2-fluoro-N-(methylsulfonyl)benzamide]",2540,11,14,,

# Source: patent US8952169B2 (Genentech, Inc., priority 2012, dated 2015)
